The target in assay [1] is T1, Beta-secretase 1 (Homo sapiens, UniProt P56817).
The target of the next assay is Cathepsin D (Homo sapiens, UniProt P07339).
For assay [2], the target named is T1, Beta-secretase 1. The source holds these as a separate data set.
Description: Inhibition of BACE1 in human neuroblastoma cells

Molecules are shown by their SMILES.

T1 sequence (P56817 whole entry): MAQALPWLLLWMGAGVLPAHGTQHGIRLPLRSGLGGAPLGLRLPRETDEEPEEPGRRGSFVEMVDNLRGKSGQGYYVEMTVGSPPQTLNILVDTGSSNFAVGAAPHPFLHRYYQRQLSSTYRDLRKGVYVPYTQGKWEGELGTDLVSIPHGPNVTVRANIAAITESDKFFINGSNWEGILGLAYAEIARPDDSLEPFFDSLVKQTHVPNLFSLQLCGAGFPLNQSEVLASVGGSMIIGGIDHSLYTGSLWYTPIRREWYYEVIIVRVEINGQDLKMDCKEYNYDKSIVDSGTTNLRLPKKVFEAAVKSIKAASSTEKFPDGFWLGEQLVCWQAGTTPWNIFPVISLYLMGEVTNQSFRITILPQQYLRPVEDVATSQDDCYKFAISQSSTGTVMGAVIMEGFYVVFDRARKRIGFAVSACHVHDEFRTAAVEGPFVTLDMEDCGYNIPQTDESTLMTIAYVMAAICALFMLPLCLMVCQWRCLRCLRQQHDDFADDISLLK
Chain of Cathepsin D (P07339 65-162 limits assumed): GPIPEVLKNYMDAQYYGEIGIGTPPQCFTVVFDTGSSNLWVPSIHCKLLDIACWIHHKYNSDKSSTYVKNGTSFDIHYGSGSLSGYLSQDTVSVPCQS
Chain of Cathepsin D (P07339 169-412 limits assumed): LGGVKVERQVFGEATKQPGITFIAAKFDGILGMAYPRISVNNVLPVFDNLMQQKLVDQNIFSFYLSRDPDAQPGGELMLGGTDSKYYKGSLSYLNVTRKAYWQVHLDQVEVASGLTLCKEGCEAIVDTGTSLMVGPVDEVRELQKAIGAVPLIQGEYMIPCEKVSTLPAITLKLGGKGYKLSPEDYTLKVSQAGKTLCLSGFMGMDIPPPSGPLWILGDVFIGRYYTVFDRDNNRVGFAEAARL
Description for Cathepsin D: Inhibition of human cathepsin D

As to `CC(C)CNC[C@@H](NC[C@H](Cc1ccccc1)NC(=O)c1cc(C(=O)N[C@H](C)c2ccccc2)cc(N(C)S(C)(=O)=O)c1)[C@H](C)O`, the Ki on Beta-secretase 1 [1] is > 1 µM.

Regarding `CCC[C@H](O)[C@H](NC[C@H](Cc1ccccc1)NC(=O)c1cc2c3c(c1)c(CC)cn3CC1(CC1)S(=O)(=O)N2C)C(=O)NC(C)C`, the Ki at Beta-secretase 1 [1] was determined as 0.00047 µM; on Cathepsin D, 2 µM. For the same compound, the IC50 against Beta-secretase 1 [2] worked out at 0.014 µM.

The Ki is a dissociation constant, usually derived from enzyme kinetics or from competition with a known ligand. In general, IC50 refers to the concentration that gives 50% inhibition. A high value points to weaker potency.

(Values after ChEMBL document CHEMBL2177024 (J Med Chem, 2012).)
